# Reference: patent US20200131473A1, “METHOD OF GENERATING 2 CELL-LIKE STEM CELLS” (IFOM FONDAZIONE ISTITUTO FIRC DI ONCOLOGIA MOLECOLARE, priority 2017, published 2020)
# Experiments:
# C57BL/6N morulae = test: Viability of APH-treated embryos; type: cell-based, mouse; conditions: APH 1.5 μM in KSOM for 4 hrs
# pZscan4-Emerald ESCs = test: FACS for Emerald-GFP and CASPASE-3 (apoptosis); type: cell-based, mouse; conditions: mostly at high concentration
# Source text: ESCs were fixed and permeabilized using Cytoperm/Cytofix kit (BD Biosciences), and subsequently stained for one hour at room temperature with Alexa Fluor® 647 anti-H2AX-Phosphorylated (Ser139) antibody (Biolegend) or P-CHK1-PE conjugated antibody (cell signaling 12268). Cells were washed and acquired on a FACS Calibur instrument or Attune NxT (Thermo Fisher Scientific). For Emerald-GFP acquisition, cells were trypsinized, collected and subsequently acquired without fixation. Cell cycle profiles were acquired after incubation with DAPI (4′,6-diamidino-2-phenylindole) overnight. For Caspase3 FACS analysis after fixation and permeabilization, Cleaved Caspase3 antibody were used for one hr at RT followed by washes and one hr incubation in donkey anti rabbit secondary antibody. […]
compound,measurement,setting,value
"C[C@@]1(CO)[C@H](O)CC[C@@]2(C)[C@H]1CC[C@H]1C[C@@H]3C[C@@]12CC[C@]3(O)CO [APH, aphidicolin]",viability of the embryos,C57BL/6N morulae,no effect on the viability of the embryos
same,cell apoptosis (CASPASE-3),pZscan4-Emerald ESCs,mild cell apoptosis
